The values below come from US8481500B2, “Compounds having neuroprotective properties” (Universidad del Pais Vasco, priority 2005, dated 2013).

“Also recorded” adds a separate entry of the source.

Assay [1] deals with neuron cultures from the brain cortex. As to the kind of experiment: Excitotoxic neuronal death in neuron cultures (glutamate or NMDA). Format: cell-based, Sprague Dawley rat. To be noted: glutamate or NMDA 50 μM for 10 minutes; antioxidant 100 nM, kept 3 hours; p<0.001 vs agonist only. As for the experimental part:
The neuron cultures were obtained from the brain cortex of Sprague Dawley rat embryos of 18 days of gestation (Larm et al., 1996, Eur J Pharmacol 314: 249-54; Cheung et al., 1998, Neuropharmacol 37: 1419-29). The cells were nourished Neurobasal medium supplemented with B27 supplement (Invitrogen).
The glutamate or NMDA (N-methyl-D-aspartate) agonists were applied, both at a concentration of 50 μM, for 10 minutes. The antioxidants, morin and mangiferin, were added during the exposure of the agonist at a concentration of 100 nM and were maintained in the medium for 3 hours until cell viability was measured by means of fluorescein diacetate. […] The values are shown as the mean±S.E.M. of the quadruplicates from 3-4 different experiments.

The test system of assay [2] is transient cerebral ischemia. Nature of the assay: NeuN+ cell count in the pyramidal layer of CA1 hippocampus after transient cerebral ischemia. Format: in vivo, Sprague-Dawley rats. To be noted: 7 and 70 days after ischemia; compared with placebo; i.p. 10 mg/kg, then 5 mg/kg every 12 hours for 7 days. As for the experimental part: (§1) Four experimental groups of Sprague-Dawley rats (each group contained 20 animals) were randomly selected: control (C), ischemic (ISCH), ischemic animals treated with mangiferin (I+MNG), and ischemic animals treated with morin (I+MOR). Transient cerebral ischemia was induced by means of occlusion of the vertebral and common carotid arteries for 10 minutes. The criteria for determining cerebral ischemia were the bilateral loss of stretch reflex, limb stiffness and mydriasis. The rectal and body temperature was maintained at 37° C. during surgery and the ischemia. […] The group of control animals was treated similarly to the group with ischemia, but none of their common carotid arteries was occluded.
Mangiferin and morin were administered intraperitoneally at a concentration of 10 mg/kg of body weight, 30 minutes after the ischemic stimulus and then at a concentration of 5 mg/kg every 12 hours for 7 days. […]
The number of positive NeuN cells was quantified in the pyramidal layer of the CA1 hippocampus in control rats and operated rats, and in animals subjected to transient cerebral ischemia 7 and 70 days after the reperfusion (n=4-5 animals for every experimental group). The amounts were collected both from the left and the right hemisphere of each section analyzed by immunohistochemistry, with two sections for every experiment from at least three independent experiments. […]

Assay [3] has as its system transient cerebral ischemia. As to the kind of experiment: Classically conditioned eyelid responses after global ischemia. The settings on record: rats subjected to global ischemia; 10 conditioning sessions. It counts as in vivo, Sprague-Dawley rats. Here is the method: as §1
(§2) Mangiferin and morin were administered intraperitoneally at a concentration of 10 mg/kg of body weight, 30 minutes after the ischemic stimulus and then at a concentration of 5 mg/kg every 12 hours for 7 days.
The study of the eyelid responses by means of classic conditioning was carried out in 10 Sprague-Dawley rats per experimental group. Each animal was anesthetized with ketamine (100 mg/kg) and xylazine (20 mg/kg). […]
A quantitative analysis of the classically conditioned eyelid responses from […] (C, dotted line) and mice with ischemia (ISCH, circles), and from mice with ischemia treated with mangiferin (I+MNG, squares) or morin (I+MOR, triangles), is shown in FIG. 4. […]

In the next assay the test system is oligodendrocyte cultures. Nature of the assay: Oligodendrocyte culture death caused by AMPA. It counts as cell-based. To be noted: AMPA 10 μM for 5 minutes; polyphenol 10-100000 nM added 24 hours before; read 24 hours later. Here is the method:
The oligodendrocyte cultures were in turn incubated with AMPA [(RS)-α-amino-3-hydroxy-5-methyl-4-isoxazolepropionic hydrobromic acid] agonists, at a 10 μM concentration for 5 minutes. The polyphenols, mangiferin and morin, were added 24 hours before the exposure of the agonist and until the end of the experiments at concentrations comprised between 10 and 100000 nM, and cell viability was measured by means of calcein fluorimetry 24 hours later. The values shown in FIG. 1B show the percentage of normalized cell death±S.E.M. of the triplicates according to the logarithm of the concentration from three different experiments. *: p<0.05; **: p<0.01.

The test system of assay [4] is superoxide production in the CA1 hippocampus region. Nature of the assay: Superoxide production in the CA1 hippocampus region after transient cerebral ischemia. It counts as in vivo, Sprague-Dawley rats. The settings on record: 1 day after transient global ischemia; i.p. 10 mg/kg 30 minutes after ischemia, then 5 mg/kg every 12 hours. Here is the method: as §1, §2
The method described by Chan et al., 1998 (J Neurosci 18: 8292-99) was followed. […] The fluorescence was examined in cryostat sections (10 μm) and was analyzed with a fluorescence microscope (Zeiss Axiophot). The images were taken with a digital camera (Axio Vision, Zeiss) and analyzed with the Image Pro Plus program.

As for `O=c1c2cc(O)c(O)cc2oc2cc(O)c([C@@H]3O[C@H](CO)[C@@H](O)[C@H](O)[C@H]3O)c(O)c12` [mangiferin], the “excitotoxic neuronal death (cell viability by fluorescein diacetate)” value in assay [1] is on record as “significantly attenuates excitotoxic neuronal death”. Also, the “number of NeuN+ cells in the pyramidal layer of the CA1 hippocampus” value in assay [2] is given as “larger; also recorded: significant increase of positive NeuN^+ cells”. The “learning capacity (conditioned eyelid responses)” value in assay [3] is “conserve the learning capacity”. Moreover, the “oligodendroglial death induced by excitotoxic stimuli (cell viability by calcein fluorimetry)” value in the assay on oligodendrocyte cultures was “protect from neuronal and oligodendroglial death”. In addition, in assay [4], the “fluorescence levels emitted by oxidized hydroethidine in neurons of the pyramidal layer of the CA1 region” value was “reduction”.
Consider morin, for which the “excitotoxic neuronal death (cell viability by fluorescein diacetate)” value in assay [1] was “significantly attenuates excitotoxic neuronal death”. Besides, the “number of NeuN+ cells in the pyramidal layer of the CA1 hippocampus” value in assay [2] is reported as “larger; also recorded: significant increase of positive NeuN^+ cells”. The “learning capacity (conditioned eyelid responses)” value in assay [3] is “conserve the learning capacity”. Also, the “oligodendroglial death induced by excitotoxic stimuli (cell viability by calcein fluorimetry)” value in the assay on oligodendrocyte cultures is “protect from neuronal and oligodendroglial death”. Besides, in assay [4], the “fluorescence levels emitted by oxidized hydroethidine in neurons of the pyramidal layer of the CA1 region” value is “reduction”.
